According to PubChem BioAssay AID2060900 (Molecular Pharmacology Branch, DTP, NCI, 2025):
Values joined by “and” are separate entries in the source; they are usually repeats but may differ in a detail not shown here. Equal entries are not always repeated.

Test system: 521955-158-R2-J5-PDC complex spheroids, viability
Assay: Anticancer human tumor 521955-158-R2-J5-PDC patient-derived pancreatic carcinoma cell line growth inhibition [RAS]
Details: for viability, T/C: stronger effect = lower value
Outline: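 Tumour cells grown as complex spheroids with HUVEC endothelial cells and mesenchymal stem cells, treated with RAS pathway inhibitor combinations. Each agent spans half-log steps from near clinical Cmax, or 10 microM where Cmax is unknown.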

[1] = curve of first compound, second compound 0.000949 µM
[2] = curve of first compound, second compound 0.003 µM
[3] = curve of first compound, second compound 0.00949 µM
[4] = curve of first compound, second compound 0.03 µM
[5] = curve of first compound, second compound 0.0949 µM
[6] = curve of first compound, second compound 0.3 µM
[7] = second compound 0.000949 µM, first compound 0.00316 µM
[8] = second compound 0.000949 µM, first compound 0.01 µM
[9] = second compound 0.000949 µM, first compound 0.0316 µM
[10] = second compound 0.000949 µM, first compound 0.1 µM
[11] = second compound 0.000949 µM, first compound 0.316 µM
[12] = second compound 0.000949 µM, first compound 1 µM
[13] = second compound 0.003 µM, first compound 0.00316 µM
[14] = second compound 0.003 µM, first compound 0.01 µM
[15] = second compound 0.003 µM, first compound 0.0316 µM
[16] = second compound 0.003 µM, first compound 0.1 µM
[17] = second compound 0.003 µM, first compound 0.316 µM
[18] = second compound 0.003 µM, first compound 1 µM
[19] = second compound 0.00949 µM, first compound 0.00316 µM
[20] = second compound 0.00949 µM, first compound 0.01 µM
[21] = second compound 0.00949 µM, first compound 0.0316 µM
[22] = second compound 0.00949 µM, first compound 0.1 µM
[23] = second compound 0.00949 µM, first compound 0.316 µM
[24] = second compound 0.00949 µM, first compound 1 µM
[25] = second compound 0.03 µM, first compound 0.00316 µM
[26] = second compound 0.03 µM, first compound 0.01 µM
[27] = second compound 0.03 µM, first compound 0.0316 µM
[28] = second compound 0.03 µM, first compound 0.1 µM
[29] = second compound 0.03 µM, first compound 0.316 µM
[30] = second compound 0.03 µM, first compound 1 µM
[31] = second compound 0.0949 µM, first compound 0.00316 µM
[32] = second compound 0.0949 µM, first compound 0.01 µM
[33] = second compound 0.0949 µM, first compound 0.0316 µM
[34] = second compound 0.0949 µM, first compound 0.1 µM
[35] = second compound 0.0949 µM, first compound 0.316 µM
[36] = second compound 0.0949 µM, first compound 1 µM
[37] = second compound 0.3 µM, first compound 0.00316 µM
[38] = second compound 0.3 µM, first compound 0.01 µM
[39] = second compound 0.3 µM, first compound 0.0316 µM
[40] = second compound 0.3 µM, first compound 0.1 µM
[41] = second compound 0.3 µM, first compound 0.316 µM
[42] = second compound 0.3 µM, first compound 1 µM
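Note: compound exposure lasted seven days before the viability read.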
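Throughout, for viability, T/C: spheroids also contain HUVEC endothelial cells and mesenchymal stem cells as stroma.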

O=C(c1ccc(F)c(F)c1Nc1ccc(I)cc1F)N1CC(O)([C@@H]2CCCCN2)C1 + CCn1c(-c2cc(N3CCN(C)CC3)cnc2C(C)OC)c2c3cc(ccc31)-c1csc(n1)CC(NC(=O)C1CC1C)C(=O)N1CCCC(N1)C(=O)OCC(C)(C)C2
IC50 [1]: 0.0209 µM | IC50 [2]: < 0.00316 µM | IC50 [3]: < 0.00316 µM | IC50 [4]: < 0.00316 µM | IC50 [5]: < 0.00316 µM | IC50 [6]: < 0.00316 µM | viability, T/C [7]: 59.3% | viability, T/C [8]: 50.1% | viability, T/C [9]: 49.4% | viability, T/C [10]: 38.6% | viability, T/C [11]: 26.4% | viability, T/C [12]: 24.1% | viability, T/C [13]: 41.5% | viability, T/C [14]: 46.7% | viability, T/C [15]: 39% | viability, T/C [16]: 26.8% | viability, T/C [17]: 20.1% | viability, T/C [18]: 17.4% | viability, T/C [19]: 32.3% | viability, T/C [20]: 32.1% | viability, T/C [21]: 29.2% | viability, T/C [22]: 17.4% | viability, T/C [23]: 17.8% | viability, T/C [24]: 15% | viability, T/C [25]: 23.7% | viability, T/C [26]: 18.3% | viability, T/C [27]: 14.9% | viability, T/C [28]: 10.8% | viability, T/C [29]: 10.3% | viability, T/C [30]: 6.61% | viability, T/C [31]: 8.68% | viability, T/C [32]: 11.3% | viability, T/C [33]: 12.6% | viability, T/C [34]: 8.23% | viability, T/C [35]: 9.48% | viability, T/C [36]: 7.34% | viability, T/C [37]: 12.8% | viability, T/C [38]: 7.85% | viability, T/C [39]: 6.59% | viability, T/C [40]: 9.27% | viability, T/C [41]: 7.62% | viability, T/C [42]: 6.97%

C=CC(=O)N1CCN(c2nc(OCC3CCCN3C)nc3c(F)c(-c4nc(N)cc(C)c4C(F)(F)F)c(Cl)cc23)C(C)C1 (stereo not drawn) + CCn1c(-c2cc(N3CCN(C)CC3)cnc2C(C)OC)c2c3cc(ccc31)-c1csc(n1)CC(NC(=O)C1CC1C)C(=O)N1CCCC(N1)C(=O)OCC(C)(C)C2
IC50 [1]: < 0.00316 µM | IC50 [2]: < 0.00316 µM | IC50 [3]: < 0.00316 µM | IC50 [4]: < 0.00316 µM | IC50 [5]: < 0.00316 µM | IC50 [6]: < 0.00316 µM | viability, T/C [7]: 42.5% | viability, T/C [8]: 43.1% | viability, T/C [9]: 45.9% | viability, T/C [10]: 45.9% | viability, T/C [11]: 57.7% | viability, T/C [12]: 41% | viability, T/C [13]: 39.4% | viability, T/C [14]: 36.5% | viability, T/C [15]: 46.7% | viability, T/C [16]: 49.3% | viability, T/C [17]: 39.9% | viability, T/C [18]: 49.5% | viability, T/C [19]: 35% | viability, T/C [20]: 35.4% | viability, T/C [21]: 44.3% | viability, T/C [22]: 29.6% | viability, T/C [23]: 42% | viability, T/C [24]: 36.1% | viability, T/C [25]: 17.1% | viability, T/C [26]: 19% | viability, T/C [27]: 22.6% | viability, T/C [28]: 20.2% | viability, T/C [29]: 30.7% | viability, T/C [30]: 18.6% | viability, T/C [31]: 16.1% | viability, T/C [32]: 11.4% | viability, T/C [33]: 11.9% | viability, T/C [34]: 13.9% | viability, T/C [35]: 15.1% | viability, T/C [36]: 11.9% | viability, T/C [37]: 10.8% | viability, T/C [38]: 10.2% | viability, T/C [39]: 11.3% | viability, T/C [40]: 12.5% | viability, T/C [41]: 15.9% | viability, T/C [42]: 9.71%

NC1c2ccccc2OC12CCN(c1cnc3c(N4CCCc5ncccc54)n[nH]c3n1)CC2 (stereo not drawn)
viability, T/C (compound 0.0316 µM): 67.5% [middle of 4 runs] | viability, T/C (compound 0.1 µM): 58.8% [middle of 4 runs] | viability, T/C (compound 0.316 µM): 55.2% [middle of 4 runs] | viability, T/C (compound 1 µM): 53.2% [middle of 4 runs] | viability, T/C (compound 3.16 µM): 54.8% [middle of 4 runs] | viability, T/C (compound 10 µM): 61.6% [middle of 4 runs] | IC50 (curve of compound): > 10 µM and 1.72 µM

CC(C)NCC(C(=O)N1CCN(c2ncnc3c2C(C)CC3O)CC1)c1ccc(Cl)cc1 (stereo not drawn) + C=CC(=O)N1CCN(c2nc(OCC3CCCN3C)nc3c(F)c(-c4nc(N)cc(C)c4C(F)(F)F)c(Cl)cc23)C(C)C1
IC50 (curve of first compound, second compound 0.00316 µM): > 10 µM | IC50 (curve of first compound, second compound 0.01 µM): > 10 µM | IC50 (curve of first compound, second compound 0.0316 µM): > 10 µM | IC50 (curve of first compound, second compound 0.1 µM): > 10 µM | IC50 (curve of first compound, second compound 0.316 µM): > 10 µM | IC50 (curve of first compound, second compound 1 µM): > 10 µM | viability, T/C (second compound 0.00316 µM, first compound 0.0316 µM): 95.9% | viability, T/C (second compound 0.00316 µM, first compound 0.1 µM): 93.2% | viability, T/C (second compound 0.00316 µM, first compound 0.316 µM): 99% | viability, T/C (second compound 0.00316 µM, first compound 1 µM): 79.7% | viability, T/C (second compound 0.00316 µM, first compound 3.16 µM): 66.4% | viability, T/C (second compound 0.00316 µM, first compound 10 µM): 54.6% | viability, T/C (second compound 0.01 µM, first compound 0.0316 µM): 77% | viability, T/C (second compound 0.01 µM, first compound 0.1 µM): 115% | viability, T/C (second compound 0.01 µM, first compound 0.316 µM): 95.6% | viability, T/C (second compound 0.01 µM, first compound 1 µM): 92.9% | viability, T/C (second compound 0.01 µM, first compound 3.16 µM): 69.1% | viability, T/C (second compound 0.01 µM, first compound 10 µM): 55% | viability, T/C (second compound 0.0316 µM, first compound 0.0316 µM): 84.1% | viability, T/C (second compound 0.0316 µM, first compound 0.1 µM): 101% | viability, T/C (second compound 0.0316 µM, first compound 0.316 µM): 91.8% | viability, T/C (second compound 0.0316 µM, first compound 1 µM): 94.7% | viability, T/C (second compound 0.0316 µM, first compound 3.16 µM): 61.2% | viability, T/C (second compound 0.0316 µM, first compound 10 µM): 55.1% | viability, T/C (second compound 0.1 µM, first compound 0.0316 µM): 88.7% | viability, T/C (second compound 0.1 µM, first compound 0.1 µM): 104% | viability, T/C (second compound 0.1 µM, first compound 0.316 µM): 113% | viability, T/C (second compound 0.1 µM, first compound 1 µM): 89% | viability, T/C (second compound 0.1 µM, first compound 3.16 µM): 67.1% | viability, T/C (second compound 0.1 µM, first compound 10 µM): 49.6% | viability, T/C (second compound 0.316 µM, first compound 0.0316 µM): 105% | viability, T/C (second compound 0.316 µM, first compound 0.1 µM): 138% | viability, T/C (second compound 0.316 µM, first compound 0.316 µM): 92.4% | viability, T/C (second compound 0.316 µM, first compound 1 µM): 72.1% | viability, T/C (second compound 0.316 µM, first compound 3.16 µM): 59.6% | viability, T/C (second compound 0.316 µM, first compound 10 µM): 49.9% | viability, T/C (second compound 1 µM, first compound 0.0316 µM): 103% | viability, T/C (second compound 1 µM, first compound 0.1 µM): 80.2% | viability, T/C (second compound 1 µM, first compound 0.316 µM): 104% | viability, T/C (second compound 1 µM, first compound 1 µM): 71.3% | viability, T/C (second compound 1 µM, first compound 3.16 µM): 61.9% | viability, T/C (second compound 1 µM, first compound 10 µM): 55.3%
